Key:
HeLa cells = test: γ-Tubulin localization on centrosomes; format: cell-based, human; conditions: interphase and mitotic HeLa cells, 6 h
Description: Supplementary Figure 8. Impact of gatastatin on γ-tubulin localization in HeLa cells (a-d) γ-Tubulin localization on centrosome in gatastatin treated HeLa cells. (a) Gatatstatin-treated interphase cells (for 6 h) were analyzed. Red, green and blue in the merged image represent pericentrin, γ-tubulin and DNA, respectively. Scale bar, 5 µm. (b) The γ-tubulin signal around pericentrin in (a) was calculated using ImageJ software from 250 (control) and 166 (gatastatin) centrosomes. Error bars represent S.D. Two-tailed, un-paired Student’s t-test was used to obtain P values. (c) Gatatstatin-treated mitotic cells (for 6 h) were analyzed. Red, green and blue in the merged image represent pericentrin, γ-tubulin and DNA, respectively.
Scale bar, 5 µm. (d) The γ-tubulin signal on pericentrin in (c) was calculated using ImageJ software from 59 (control) and 98 (gatastatin) centrosomes. Error bars represent S.D. Two-tailed, un-paired Student’s t-test was used to obtain P values. γ-Tubulin and pericentrin antibodies were purchased from Sigma (GTU-88, Cat# T6557) and Abcam (Cat# ab4448), respectively.
(1 picture or pasted object on this page, not shown here)

α/β-tubulin = molecular target: T1, α/β-tubulin (Sus scrofa, UniProt P02550+P02554); test: Tryptophan-based drug-binding assay, α/β-tubulin; set-up: species or system porcine; conditions: tryptophan fluorescence decrease; 1 μM protein; mean±s.d., three independent experiments
T1 construct: α/β-Tubulin was purified from porcine brain; from tissue; host or cells: porcine brain
Description: γ-TuSC was purified as described. Briefly, γ-TuSC was expressed in HighFive cells and purified by sequential steps of Ni-NTA (Macherei-Nagel) purification, MonoQ column purification (GE Healthcare) and size exclusion (Superdex 200 column, GE Healthcare)[14]. α/β-Tubulin was purified from porcine brain through four cycles of polymerization and depolymerization using 1 M PIPES buffer (1 M PIPES-KOH, 1 mM EGTA, 1 mM MgCl2, pH 6.8) for effective removal of MT-associated proteins.
Gel filtration buffer for γ-tubulin purification (50 mM MES pH 6.6, 500 mM KCl, 5 mM MgCl2, 1 mM EGTA and 1 mM DTT) supplemented with 10% of glycerol was used as an assay buffer. γ-tubulin and α/β-tubulin were diluted in this assay buffer to reach a final protein concentration of 1 μM. A final concentration of 10 μM or 1 mM GTP was added to the samples. Proteins were incubated for 30 min with compounds (final DMSO concentration was 1%; 2% for AG1 and gatastatin). […] Dissociation constants were calculated from fitting curves of decreasing fluorescence (ΔFL) using the GraphPad Prizm software.

T1 sequence (P02554 whole entry): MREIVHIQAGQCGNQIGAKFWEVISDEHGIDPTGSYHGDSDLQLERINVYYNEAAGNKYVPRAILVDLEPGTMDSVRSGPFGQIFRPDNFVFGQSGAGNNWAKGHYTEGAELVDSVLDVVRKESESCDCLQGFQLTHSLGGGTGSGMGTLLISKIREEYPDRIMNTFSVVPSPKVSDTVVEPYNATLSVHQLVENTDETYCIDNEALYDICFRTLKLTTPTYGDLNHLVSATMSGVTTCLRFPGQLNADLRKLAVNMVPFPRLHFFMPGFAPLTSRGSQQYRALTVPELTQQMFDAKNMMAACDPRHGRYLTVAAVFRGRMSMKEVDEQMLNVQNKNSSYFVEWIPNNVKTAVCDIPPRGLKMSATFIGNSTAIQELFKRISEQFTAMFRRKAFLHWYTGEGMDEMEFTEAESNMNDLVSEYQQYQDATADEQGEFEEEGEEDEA
T1 sequence (P02550 whole entry): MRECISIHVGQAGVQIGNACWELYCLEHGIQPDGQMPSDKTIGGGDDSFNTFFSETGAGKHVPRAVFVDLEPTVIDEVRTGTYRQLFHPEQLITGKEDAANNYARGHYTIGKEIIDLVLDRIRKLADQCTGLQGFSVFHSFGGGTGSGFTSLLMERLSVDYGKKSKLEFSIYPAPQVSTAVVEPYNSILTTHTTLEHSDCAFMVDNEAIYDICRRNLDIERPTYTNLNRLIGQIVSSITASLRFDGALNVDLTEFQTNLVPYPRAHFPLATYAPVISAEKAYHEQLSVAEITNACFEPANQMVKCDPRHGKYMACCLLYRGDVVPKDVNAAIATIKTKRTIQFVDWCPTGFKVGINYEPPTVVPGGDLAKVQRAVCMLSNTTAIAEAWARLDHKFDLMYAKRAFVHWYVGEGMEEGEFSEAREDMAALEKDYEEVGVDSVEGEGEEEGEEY

With `COc1cc2c(=O)c(-c3cc(OC)c4c(c3OC)OCO4)coc2cc1OCc1ccccc1` [Gatastatin, O^7-demethylbenzyl AG1] the “γ-Tubulin localization to centrosomes” value (HeLa cells) was “not affected” and the Kd (α/β-tubulin) was 42.5 ± 36.7 µM.

Source: PMC4640066 (Nature Communications, 2015)
